Test results: paper PMC10989772 (mLife, 2022)

How the values were obtained:
[1] = target: Larg1 (lpg0081, 16–428aa) (Legionella pneumophila, UniProt Q5ZZD0)
Larg1 (Lpg0081) = Larg1 (Lpg0081) (Legionella pneumophila, UniProt Q5ZZD0)
Sequence of Larg1 (Lpg0081) (Q5ZZD0 1-441 limits assumed): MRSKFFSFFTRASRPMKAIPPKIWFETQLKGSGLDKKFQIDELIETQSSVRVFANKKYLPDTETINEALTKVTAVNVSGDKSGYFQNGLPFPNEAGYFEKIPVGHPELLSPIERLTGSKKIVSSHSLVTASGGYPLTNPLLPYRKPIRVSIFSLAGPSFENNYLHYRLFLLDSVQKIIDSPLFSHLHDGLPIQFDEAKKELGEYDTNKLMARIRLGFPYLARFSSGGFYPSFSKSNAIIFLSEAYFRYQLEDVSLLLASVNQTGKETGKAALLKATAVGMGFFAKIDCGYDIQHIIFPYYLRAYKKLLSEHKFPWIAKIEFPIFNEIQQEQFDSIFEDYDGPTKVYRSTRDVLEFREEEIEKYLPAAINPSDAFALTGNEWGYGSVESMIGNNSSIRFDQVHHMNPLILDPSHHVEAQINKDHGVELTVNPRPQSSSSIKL

Sequence of Larg1 (lpg0081, 16–428aa) (Q5ZZD0 16-428 limits assumed): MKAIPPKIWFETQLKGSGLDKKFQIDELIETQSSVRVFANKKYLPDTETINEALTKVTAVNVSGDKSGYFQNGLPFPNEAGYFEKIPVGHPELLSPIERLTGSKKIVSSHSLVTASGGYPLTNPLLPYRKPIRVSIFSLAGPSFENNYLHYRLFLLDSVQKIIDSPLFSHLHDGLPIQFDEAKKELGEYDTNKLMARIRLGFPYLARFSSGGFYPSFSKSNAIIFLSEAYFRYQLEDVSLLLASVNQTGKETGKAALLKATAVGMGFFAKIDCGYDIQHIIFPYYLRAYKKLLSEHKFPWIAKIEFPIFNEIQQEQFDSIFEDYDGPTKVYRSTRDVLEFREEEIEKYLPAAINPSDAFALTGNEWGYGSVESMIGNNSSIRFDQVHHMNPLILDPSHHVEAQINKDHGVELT

Nc1ncnc2c1ncn2[C@@H]1O[C@H](COP(=O)(O)OP(=O)(O)OC[C@H]2OC(O)[C@H](O)[C@@H]2O)[C@@H](O)[C@H]1O (some centres unmarked) [ADPR]
X-ray crystal structure, 2.32 Å [1]: to determine the structure of the Larg1‐ADPR complex (PDB:7W3S)
Kd (Larg1 (Lpg0081)): 3.87 µM
